target: T1, ΔF508-CFTR (Homo sapiens, UniProt P13569, DEL508-508); assay: hBE equivalent current (Ieq) assay: AUC of equivalent chloride current after forskolin/VX-770 in primary lung epithelial cells homozygous for ΔF508; assay type: cell-based; details: relative to CFTR amplifier (Compound A)+VX-809 (3 uM), compound at 10 uM and Compound A at 3 uM, 24 h treatment
T1 construct: Primary lung epithelial cells homozygous for the Cystic Fibrosis-causing ΔF508 mutation were differentiated for a minimum of 4 weeks; endogenous in cells; host or cells: primary lung epithelial cells (hBE) homozygous for ΔF508, differentiated at an air-liquid interface
Outline: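 ΔF508/ΔF508 primary human bronchial epithelia, differentiated ≥4 weeks at air-liquid interface, treated basolaterally with compound for 24 h at 37 °C. Transepithelial voltage and conductance by 24-channel current clamp at 36 °C: benzamil, then forskolin plus VX-770 for 27 min, then bumetanide; AUC of equivalent chloride current over vehicle.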

T1 sequence (P13569 with tags, fused parts or gaps DEL508-508): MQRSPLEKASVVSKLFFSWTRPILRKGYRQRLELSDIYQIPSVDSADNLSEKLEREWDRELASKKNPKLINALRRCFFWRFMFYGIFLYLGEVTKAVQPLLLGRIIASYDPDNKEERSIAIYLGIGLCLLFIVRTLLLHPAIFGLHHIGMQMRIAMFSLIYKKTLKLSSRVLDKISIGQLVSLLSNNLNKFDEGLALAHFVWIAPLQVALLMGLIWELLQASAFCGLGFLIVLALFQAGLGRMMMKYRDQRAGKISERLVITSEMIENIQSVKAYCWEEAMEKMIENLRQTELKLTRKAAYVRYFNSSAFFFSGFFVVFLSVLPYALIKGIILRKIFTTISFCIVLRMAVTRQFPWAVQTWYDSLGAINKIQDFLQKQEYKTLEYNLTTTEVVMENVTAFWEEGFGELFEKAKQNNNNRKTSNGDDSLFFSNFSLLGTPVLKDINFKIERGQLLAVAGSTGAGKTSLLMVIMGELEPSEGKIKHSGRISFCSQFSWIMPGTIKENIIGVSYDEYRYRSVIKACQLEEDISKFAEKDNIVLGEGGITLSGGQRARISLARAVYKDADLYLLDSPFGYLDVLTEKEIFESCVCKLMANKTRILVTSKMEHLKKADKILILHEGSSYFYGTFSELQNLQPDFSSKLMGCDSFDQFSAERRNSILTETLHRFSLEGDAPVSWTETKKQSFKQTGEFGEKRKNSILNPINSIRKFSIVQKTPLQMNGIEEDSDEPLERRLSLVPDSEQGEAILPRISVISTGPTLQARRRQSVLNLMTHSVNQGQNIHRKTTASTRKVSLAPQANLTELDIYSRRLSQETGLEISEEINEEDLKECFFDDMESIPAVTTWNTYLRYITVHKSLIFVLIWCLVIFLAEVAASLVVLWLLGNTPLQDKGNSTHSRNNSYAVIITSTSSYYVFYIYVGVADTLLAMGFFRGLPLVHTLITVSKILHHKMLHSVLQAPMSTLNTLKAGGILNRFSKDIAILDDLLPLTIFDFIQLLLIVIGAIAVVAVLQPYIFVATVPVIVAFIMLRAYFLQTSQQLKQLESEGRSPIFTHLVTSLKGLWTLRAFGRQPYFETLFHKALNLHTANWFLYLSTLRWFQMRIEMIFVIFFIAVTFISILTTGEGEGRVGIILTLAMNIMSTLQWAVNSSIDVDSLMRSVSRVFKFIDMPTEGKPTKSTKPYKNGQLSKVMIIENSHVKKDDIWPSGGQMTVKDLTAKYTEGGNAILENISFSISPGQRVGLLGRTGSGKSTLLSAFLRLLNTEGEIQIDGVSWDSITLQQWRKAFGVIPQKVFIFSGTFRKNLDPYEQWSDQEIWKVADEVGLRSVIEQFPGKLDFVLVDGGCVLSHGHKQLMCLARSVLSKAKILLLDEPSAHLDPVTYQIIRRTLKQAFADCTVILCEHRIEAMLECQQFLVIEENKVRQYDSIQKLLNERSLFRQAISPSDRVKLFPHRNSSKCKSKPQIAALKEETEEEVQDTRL

Row | Structure (SMILES) | Activity
1 | Cc1c(-c2cc(C(=O)[O-])c3c(OC[C@H]4CC[C@](C)(O)CC4)ccc(C)c3n2)sc2ccccc12.[Na+] [Compound 323] | ++ (activity>50% of CFTR amplifier+VX-809 (3 uM) with compound at 10 uM and Compound A at 3 uM)
2 | CO[C@]1(C)C[C@H](COc2ccc(C)c3nc(-c4sc5ccccc5c4C)cc(C(=O)[O-])c23)C1.[Na+] [Compound 324] | ++ (activity>50% of CFTR amplifier+VX-809 (3 uM) with compound at 10 uM and Compound A at 3 uM)
3 | CO[C@]1(C)C[C@@H](COc2ccc(C)c3nc(-c4sc5ccccc5c4C)cc(C(=O)[O-])c23)C1.[Na+] [Compound 325] | ++ (activity>50% of CFTR amplifier+VX-809 (3 uM) with compound at 10 uM and Compound A at 3 uM)
4 | CO[C@]1(C)CC[C@H](COc2ccc(C)c3nc(-c4sc5ccccc5c4C)cc(C(=O)[O-])c23)CC1.[Na+] [Compound 326] | ++ (activity>50% of CFTR amplifier+VX-809 (3 uM) with compound at 10 uM and Compound A at 3 uM)
5 | CO[C@]1(C)CC[C@@H](COc2ccc(C)c3nc(-c4sc5ccccc5c4C)cc(C(=O)[O-])c23)CC1.[Na+] [Compound 327] | ++ (activity>50% of CFTR amplifier+VX-809 (3 uM) with compound at 10 uM and Compound A at 3 uM)
6 | Cc1ccc(OC(C)c2ccccc2)c2c(C(=O)[O-])cc(-c3cc4ccccn4c3)nc12.[Na+] (centres unmarked) [Compound 328] | ++ (activity>50% of CFTR amplifier+VX-809 (3 uM) with compound at 10 uM and Compound A at 3 uM)
7 | Cc1c(-c2cc(C(=O)[O-])c3c(O[C@@H](C)C4CCOCC4)ccc(C)c3n2)sc2ccccc12.[Na+] [Compound 329] | ++ (activity>50% of CFTR amplifier+VX-809 (3 uM) with compound at 10 uM and Compound A at 3 uM)
8 | Cc1c(-c2cc(C(=O)[O-])c3c(O[C@H](C)C4CCOCC4)ccc(C)c3n2)sc2ccccc12.[Na+] [Compound 330] | ++ (activity>50% of CFTR amplifier+VX-809 (3 uM) with compound at 10 uM and Compound A at 3 uM)
9 | Cc1c(-c2cc(C(=O)[O-])c3c(OC4CCOCC4)ccc(C)c3n2)sc2ccccc12.[Na+] [Compound 331] | ++ (activity>50% of CFTR amplifier+VX-809 (3 uM) with compound at 10 uM and Compound A at 3 uM)
10 | Cc1c(-c2cc(C(=O)[O-])c3c(OC4CCOCC4)ccc(C)c3n2)oc2ccccc12.[Na+] [Compound 332] | ++ (activity>50% of CFTR amplifier+VX-809 (3 uM) with compound at 10 uM and Compound A at 3 uM)
11 | Cc1c(-c2cc(C(=O)[O-])c3c(OC4CC(C)(C)OC(C)(C)C4)ccc(C)c3n2)sc2ccccc12.[Na+] [Compound 333] | ++ (activity>50% of CFTR amplifier+VX-809 (3 uM) with compound at 10 uM and Compound A at 3 uM)
12 | Cc1c(-c2cc(C(=O)[O-])c3c(OC4CC(C)(C)OC(C)(C)C4)ccc(C)c3n2)oc2ccccc12.[Na+] [Compound 334] | ++ (activity>50% of CFTR amplifier+VX-809 (3 uM) with compound at 10 uM and Compound A at 3 uM)
13 | Cc1c(-c2cc(C(=O)O)c3c(OC4CCCc5ccccc54)ccc(C)c3n2)oc2ccccc12 (centres unmarked) [Compound 335] | ++ (activity>50% of CFTR amplifier+VX-809 (3 uM) with compound at 10 uM and Compound A at 3 uM)
14 | Cc1c(-c2cc(C(=O)O)c3c(OC4CCc5ccccc54)ccc(C)c3n2)oc2ccccc12 (centres unmarked) [Compound 336] | ++ (activity>50% of CFTR amplifier+VX-809 (3 uM) with compound at 10 uM and Compound A at 3 uM)
15 | Cc1c(-c2cc(C(=O)[O-])c3c(OCC4CC(C)(C)OC(C)(C)C4)ccc(C)c3n2)sc2ccccc12.[Na+] [Compound 337] | ++ (activity>50% of CFTR amplifier+VX-809 (3 uM) with compound at 10 uM and Compound A at 3 uM)
16 | Cc1c(-c2cc(C(=O)[O-])c3c(OCC4CC(C)(C)OC(C)(C)C4)ccc(C)c3n2)oc2ccccc12.[Na+] [Compound 338] | ++ (activity>50% of CFTR amplifier+VX-809 (3 uM) with compound at 10 uM and Compound A at 3 uM)
17 | Cc1c(-c2cc(C(=O)[O-])c3c(OCC4COC4)ccc(C)c3n2)oc2ccccc12.[Na+] [Compound 343] | ++ (activity>50% of CFTR amplifier+VX-809 (3 uM) with compound at 10 uM and Compound A at 3 uM)
18 | Cc1c(-c2cc(C(=O)[O-])c3c(OCC4COC4)ccc(C)c3n2)sc2ccccc12.[Na+] [Compound 346] | ++ (activity>50% of CFTR amplifier+VX-809 (3 uM) with compound at 10 uM and Compound A at 3 uM)
19 | Cc1c(-c2cc(C(=O)O)c3c(OC(C)c4ccc5nccn5c4)ccc(C)c3n2)oc2ccccc12 (centres unmarked) [Compound 347] | + (activity<50% of an CFTR amplifier (Compound A)+VX-809 (3 uM) with compound at 10 uM and Compound A at 3 uM)
20 | Cc1c(-c2cc(C(=O)[O-])c3c(O[C@H]4C[C@H](C5CCOCC5)C4)ccc(C)c3n2)oc2ccccc12.[Na+] [Compound 350] | ++ (activity>50% of CFTR amplifier+VX-809 (3 uM) with compound at 10 uM and Compound A at 3 uM)
21 | Cc1c(-c2cc(C(=O)[O-])c3c(O[C@@H]4C[C@H]5CC[C@@H](C4)O5)ccc(C)c3n2)sc2ccccc12.[Na+] [Compound 352] | ++ (activity>50% of CFTR amplifier+VX-809 (3 uM) with compound at 10 uM and Compound A at 3 uM)

Row | Structure (SMILES) | Activity
22 | Cc1c(-c2cc(C(=O)[O-])c3c(O[C@H]4C[C@H]5CC[C@@H](C4)O5)ccc(C)c3n2)sc2ccccc12.[Na+] [Compound 353] | ++ (activity>50% of CFTR amplifier+VX-809 (3 uM) with compound at 10 uM and Compound A at 3 uM)
23 | Cc1c(-c2cc(C(=O)[O-])c3c(O[C@@H]4C[C@H]5CC[C@@H](C4)O5)ccc(C)c3n2)oc2ccccc12.[Na+] [Compound 354] | ++ (activity>50% of CFTR amplifier+VX-809 (3 uM) with compound at 10 uM and Compound A at 3 uM)
24 | Cc1c(-c2cc(C(=O)[O-])c3c(O[C@H]4C[C@H]5CC[C@@H](C4)O5)ccc(C)c3n2)oc2ccccc12.[Na+] [Compound 355] | ++ (activity>50% of CFTR amplifier+VX-809 (3 uM) with compound at 10 uM and Compound A at 3 uM)
25 | Cc1c(-c2cc(C(=O)[O-])c3c(OC[C@@H]4C[C@H]5CC[C@@H](C4)O5)ccc(C)c3n2)oc2ccccc12.[Na+] [Compound 356] | ++ (activity>50% of CFTR amplifier+VX-809 (3 uM) with compound at 10 uM and Compound A at 3 uM)
26 | Cc1c(-c2cc(C(=O)[O-])c3c(OC[C@H]4C[C@H]5CC[C@@H](C4)O5)ccc(C)c3n2)oc2ccccc12.[Na+] [Compound 357] | ++ (activity>50% of CFTR amplifier+VX-809 (3 uM) with compound at 10 uM and Compound A at 3 uM)
27 | Cc1c(-c2cc(C(=O)[O-])c3c(OC[C@@H]4C[C@H]5CC[C@@H](C4)O5)ccc(C)c3n2)sc2ccccc12.[Na+] [Compound 358] | ++ (activity>50% of CFTR amplifier+VX-809 (3 uM) with compound at 10 uM and Compound A at 3 uM)
28 | Cc1c(-c2cc(C(=O)[O-])c3c(OC[C@H]4C[C@H]5CC[C@@H](C4)O5)ccc(C)c3n2)sc2ccccc12.[Na+] [Compound 359] | ++ (activity>50% of CFTR amplifier+VX-809 (3 uM) with compound at 10 uM and Compound A at 3 uM)
29 | Cc1c(-c2cc(C(=O)O)c3c(OC(C)c4ccc(S(N)(=O)=O)cc4)ccc(C)c3n2)oc2ccccc12 (centres unmarked) [Compound 360] | ++ (activity>50% of CFTR amplifier+VX-809 (3 uM) with compound at 10 uM and Compound A at 3 uM)
30 | Cc1c(-c2cc(-c3noc(O)n3)c3c(OC(C)c4ccccc4)ccc(C)c3n2)oc2ccccc12 (centres unmarked) [Compound 361] | ++ (activity>50% of CFTR amplifier+VX-809 (3 uM) with compound at 10 uM and Compound A at 3 uM)
31 | Cc1c(-c2cc(-c3cc(O)[nH]n3)c3c(OC(C)c4ccccc4)ccc(C)c3n2)oc2ccccc12 (centres unmarked) [Compound 362] | + (activity<50% of an CFTR amplifier (Compound A)+VX-809 (3 uM) with compound at 10 uM and Compound A at 3 uM)
32 | Cc1c(-c2cc(C(=O)[O-])c3c(OCC4CCC5(CC4)COC5)ccc(C)c3n2)oc2ccccc12.[Na+] [Compound 367] | ++ (activity>50% of CFTR amplifier+VX-809 (3 uM) with compound at 10 uM and Compound A at 3 uM)
33 | Cc1c(-c2cc(C(=O)[O-])c3c(OC4CC(C)(C)C4)ccc(C)c3n2)oc2ccccc12.[Na+] [Compound 368] | ++ (activity>50% of CFTR amplifier+VX-809 (3 uM) with compound at 10 uM and Compound A at 3 uM)
34 | Cc1c(-c2cc(C(=O)[O-])c3c(OC4CC5(COC5)C4)ccc(C)c3n2)oc2ccccc12.[Na+] [Compound 369] | ++ (activity>50% of CFTR amplifier+VX-809 (3 uM) with compound at 10 uM and Compound A at 3 uM)
35 | Cc1c(-c2cc(C(=O)[O-])c3c(OC4CC5(COC5)C4)ccc(C)c3n2)sc2ccccc12.[Na+] [Compound 370] | ++ (activity>50% of CFTR amplifier+VX-809 (3 uM) with compound at 10 uM and Compound A at 3 uM)
36 | Cc1c(-c2cc(C(=O)[O-])c3c(OC(C)c4ccc(C5COC5)cc4)ccc(C)c3n2)oc2ccccc12.[Na+] (centres unmarked) [Compound 372] | ++ (activity>50% of CFTR amplifier+VX-809 (3 uM) with compound at 10 uM and Compound A at 3 uM)
37 | Cc1c(-c2cc(C(=O)[O-])c3c(OC(C)c4ccc(C5COC5)cc4)ccc(C)c3n2)sc2ccccc12.[Na+] (centres unmarked) [Compound 373] | ++ (activity>50% of CFTR amplifier+VX-809 (3 uM) with compound at 10 uM and Compound A at 3 uM)
38 | Cc1c(-c2cc(C(=O)[O-])c3c(OC[C@H]4C[C@@](C)(O)C4)ccc(C)c3n2)oc2ccccc12.[Na+] [Compound 374] | ++ (activity>50% of CFTR amplifier+VX-809 (3 uM) with compound at 10 uM and Compound A at 3 uM)
39 | Cc1c(-c2cc(C(=O)[O-])c3c(OC[C@H]4C[C@](C)(O)C4)ccc(C)c3n2)oc2ccccc12.[Na+] [Compound 375] | ++ (activity>50% of CFTR amplifier+VX-809 (3 uM) with compound at 10 uM and Compound A at 3 uM)
40 | Cc1c(-c2cc(C(=O)[O-])c3c(OC[C@H]4CC[C@@](C)(O)CC4)ccc(C)c3n2)oc2ccccc12.[Na+] [Compound 376] | ++ (activity>50% of CFTR amplifier+VX-809 (3 uM) with compound at 10 uM and Compound A at 3 uM)
41 | Cc1c(-c2cc(C(=O)[O-])c3c(OC[C@H]4CC[C@](C)(O)CC4)ccc(C)c3n2)oc2ccccc12.[Na+] [Compound 377] | ++ (activity>50% of CFTR amplifier+VX-809 (3 uM) with compound at 10 uM and Compound A at 3 uM)

Source: patent US11136313B2, “Compounds, compositions, and methods for modulating CFTR” (Proteostasis Therapeutics, Inc., priority 2015, dated 2021)
